Where a name gives a salt, the structure may show the parent alone. Read-outs that look alike come from different tables or passages of the source.
Assays:
[1] = tested on: methicillin-susceptible S. aureus (MSSA), MRSA and mutants thereof; test: MIC measurement, Test Example 3 (MSSA, MRSA and sequential gyrA/grlA quinolone-resistant mutants); format: cell-based, Staphylococcus aureus; details: Staphylococcus aureus
Method in brief: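 Broth microdilution in cation-adjusted Mueller Hinton broth: inoculum from overnight TSB cultures set to A578 0.3, then 500-fold diluted and added 1:1 to serial compound concentrations.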

[2] = tested on: VISA clinical isolates of MRSA (VI-MRSA) and of MSSA (VI-MSSA); test: microbe, parasite or virus in culture; format: cell-based, Staphylococcus aureus
Method in brief: (§1)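 Strains were grown overnight at 37° C in TSB, adjusted in CAMHB to 0.3 absorbance at 578 nm and diluted 500-fold before equal-volume addition to compound dilutions.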

VRSA clinical isolates = test: microbe, parasite or virus in culture; format: cell-based; details: Staphylococcus aureus
Method in brief: as §1

Enterococcus faecalis = test: MIC measurement, Test Example 6 (enterococcus); format: cell-based; details: Enterococcus faecalis, read-out: MIC
Method in brief: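 Broth microdilution in cation-adjusted Mueller Hinton: inoculum from overnight TSB cultures adjusted to absorbance 0.3 at 578 nm and diluted 500×. Compounds at various concentrations; static 37° C overnight incubation. MIC = lowest concentration without visible turbidity; strains include two vancomycin-resistant NCTC isolates.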

Work on `NC1CCN(c2nc3c(cc2F)c(=O)c(C(=O)O)cn3-c2ccc(F)cc2F)C1` (centres unmarked) [TFLX, tosufloxacin tosylate] yielded an MIC ([1]; FDA209P / MRSA / MSSA, FDA209P (MSSA), control, read-out: MIC) of at most 0.063 µg/mL, an MIC ([1]; MR5867 (MRSA), clinical isolate parent strain, no mutation) of at most 0.063 µg/mL and an MIC ([1]; MR5867-3, third-step mutant, further grlA S80F) of over 128 µg/mL. It also gave an MIC ([1]; MR5867-4, fourth-step mutant, further gyrA E88K) of over 128 µg/mL, an MIC ([1]; MS5935-1, first-step quinolone-resistant mutant, grlA S80F) of 1 µg/mL and an MIC ([1]; MS5935-2, second-step mutant, further gyrA S84L) of 64 µg/mL. For the same molecule, the MIC ([1]; MS5935-3, third-step mutant, further grlA E84K) was over 128 µg/mL, the MIC ([1]; MS5952-1, first-step quinolone-resistant mutant, grlA S80Y) was 2 µg/mL and the MIC ([1]; MS5952-3, third-step mutant, further grlA A116V) was over 128 µg/mL. For the same molecule, the MIC ([2]; Staphylococcus aureus, 99/3700-W, VI-MRSA, The United Kingdom) was 8 µg/mL, the MIC ([2]; Staphylococcus aureus, 99/3759-V, VI-MRSA, The United Kingdom) was 16 µg/mL and the MIC ([2]; Staphylococcus aureus, 28160, VI-MRSA, South African Republic) was 32 µg/mL. It also gave an MIC ([2]; Staphylococcus aureus, 98141, VI-MRSA, France) of 32 µg/mL, an MIC ([2]; Staphylococcus aureus, A7 (JCSC4842), VI-MRSA, Taiwan) of 32 µg/mL and an MIC ([2]; Staphylococcus aureus, AMC11094, VI-MRSA, Korea) of over 128 µg/mL. The MIC ([2]; Staphylococcus aureus, B7 (JCSC4852), VI-MRSA, Taiwan) was 16 µg/mL, the MIC ([2]; Staphylococcus aureus, BR1, VI-MRSA, Brazil) was 128 µg/mL and the MIC ([2]; Staphylococcus aureus, BR2, VI-MRSA, Brazil) was 32 µg/mL. For the same molecule, the MIC ([2]; Staphylococcus aureus, BR3, VI-MRSA, Brazil) was 32 µg/mL, the MIC ([2]; Staphylococcus aureus, BR4, VI-MRSA, Brazil) was over 128 µg/mL and the MIC ([2]; Staphylococcus aureus, BR5, VI-MRSA, Brazil) was over 128 µg/mL. It also gave an MIC ([2]; Staphylococcus aureus, HIP06297, VI-MRSA, America) of 128 µg/mL, an MIC ([2]; Staphylococcus aureus, HIP06854, VI-MRSA, America) of 128 µg/mL and an MIC ([2]; Staphylococcus aureus, HIP07920, VI-MRSA, America) of 4 µg/mL. For the same molecule, the MIC ([2]; Staphylococcus aureus, HIP07930, VI-MRSA, America) was over 128 µg/mL, the MIC ([2]; Staphylococcus aureus, HIP08926, VI-MRSA, America) was 128 µg/mL and the MIC ([2]; Staphylococcus aureus, HIP09143, VI-MRSA, America) was over 128 µg/mL. The MIC ([2]; Staphylococcus aureus, HIP09313, VI-MRSA, America) was 128 µg/mL, the MIC ([2]; Staphylococcus aureus, HIP09433, VI-MRSA, America) was over 128 µg/mL and the MIC ([2]; Staphylococcus aureus, HIP09662, VI-MRSA, America) was over 128 µg/mL. It also gave an MIC ([2]; Staphylococcus aureus, HIP09735, VI-MRSA, America) of over 128 µg/mL, an MIC ([2]; Staphylococcus aureus, HIP09737, VI-MSSA, America) of over 128 µg/mL and an MIC ([2]; Staphylococcus aureus, HIP09740, VI-MRSA, America) of over 128 µg/mL. For the same molecule, the MIC ([2]; Staphylococcus aureus, HIP10267, VI-MRSA, America) was over 128 µg/mL, the MIC ([2]; Staphylococcus aureus, HIP10540, VI-MRSA, America) was 128 µg/mL and the MIC ([2]; Staphylococcus aureus, HIP12864, VI-MRSA, America) was over 128 µg/mL. It also gave an MIC ([2]; Staphylococcus aureus, HIP13036, VI-MRSA, America) of 64 µg/mL, an MIC ([2]; Staphylococcus aureus, HIP13057, VI-MRSA, America) of over 128 µg/mL and an MIC ([2]; Staphylococcus aureus, IL (HIP7737), VI-MRSA, America) of over 128 µg/mL. It also gave an MIC ([2]; Staphylococcus aureus, JCSC7193, VI-MRSA, Thailand) of 128 µg/mL, an MIC ([2]; Staphylococcus aureus, JCSC7195, VI-MRSA, Thailand) of over 128 µg/mL and an MIC ([2]; Staphylococcus aureus, JCSC7203, VI-MRSA, Thailand) of 128 µg/mL. The MIC ([2]; Staphylococcus aureus, LIM2, VI-MRSA, France) was over 128 µg/mL, the MIC ([2]; Staphylococcus aureus, LY-1999-01, VI-MSSA, Oman) was 8 µg/mL and the MIC ([2]; Staphylococcus aureus, LY-1999-03, VI-MRSA, Oman) was 32 µg/mL. For the same molecule, the MIC ([2]; Staphylococcus aureus, MI (HIP5827), VI-MRSA, America) was 16 µg/mL, the MIC ([2]; Staphylococcus aureus, MRSA / MSSA / NRS 76 / VISA, NRS76, VI-MSSA, America) was over 128 µg/mL and the MIC ([2]; Staphylococcus aureus, MRSA / MSSA / NRS 79 / VISA, NRS79, VI-MRSA, America) was over 128 µg/mL. It also gave an MIC ([2]; Staphylococcus aureus, MRSA / MSSA / NRS 118 / VISA, NRS118, VI-MRSA, America) of over 128 µg/mL, an MIC ([2]; Staphylococcus aureus, MRSA / MSSA / NRS 126 / VISA, NRS126, VI-MRSA, America) of 128 µg/mL and an MIC ([2]; Staphylococcus aureus, Mu3, VI-MRSA, Japan) of 16 µg/mL. The MIC ([2]; Staphylococcus aureus, Mu50, VI-MRSA, Japan) was over 128 µg/mL, the MIC ([2]; Staphylococcus aureus, NJ (HIP5836), VI-MRSA, America) was 32 µg/mL and the MIC ([2]; Staphylococcus aureus, P1V44, VI-MSSA, Belgium) was 8 µg/mL. For the same molecule, the MIC ([2]; Staphylococcus aureus, PC, VI-MRSA, America) was 128 µg/mL, the MIC ([2]; Staphylococcus aureus, SA MER-S6, VI-MSSA, France) was 0.25 µg/mL and the MIC ([2]; Staphylococcus aureus, SA MER-S12, VI-MSSA, France) was 0.25 µg/mL. The MIC ([2]; Staphylococcus aureus, SA MER-S20, VI-MSSA, France) was 1 µg/mL, the MIC (VRSA clinical isolates; VRS1, VRSA, Michigan) was 4 µg/mL and the MIC (VRSA clinical isolates; VRS2, VRSA, Pennsylvania) was over 128 µg/mL. For the same molecule, the MIC (VRSA clinical isolates; VRS3, VRSA, New York) was over 128 µg/mL, the MIC (VRSA clinical isolates; VRS4, VRSA, New York) was over 128 µg/mL and the MIC (VRSA clinical isolates; VRS5, VRSA, Michigan) was over 128 µg/mL. It also gave an MIC (VRSA clinical isolates; VRS6, VRSA, Michigan) of over 128 µg/mL, an MIC (VRSA clinical isolates; VRS7, VRSA, Michigan) of 4 µg/mL and an MIC (Enterococcus faecalis; E. faecalis 36-15672, quinolone-susceptible enterococci) of 0.5 µg/mL. It also gave an MIC (Enterococcus faecalis; E. faecalis 36-15673, quinolone-susceptible enterococci) of 0.5 µg/mL, an MIC (Enterococcus faecalis; E. faecalis 36-15678, quinolone-susceptible enterococci) of 0.5 µg/mL and an MIC (Enterococcus faecalis; E. faecalis 36-15686, quinolone-resistant enterococci) of over 128 µg/mL. It also gave an MIC (Enterococcus faecalis; E. faecalis 36-15688, quinolone-susceptible enterococci) of at most 0.063 µg/mL, an MIC (Enterococcus faecalis; E. faecalis 36-15694, quinolone-resistant enterococci) of over 128 µg/mL and an MIC (Enterococcus faecalis; E. faecalis 36-15696, quinolone-susceptible enterococci) of 0.25 µg/mL. It also gave an MIC (Enterococcus faecalis; E. faecalis 36-15703, quinolone-resistant enterococci) of over 128 µg/mL, an MIC (Enterococcus faecalis; E. faecalis 36-15716, quinolone-resistant enterococci) of over 128 µg/mL and an MIC (Enterococcus faecalis; E. faecalis 36-15718, quinolone-susceptible enterococci) of 0.25 µg/mL. For the same molecule, the MIC (Enterococcus faecalis; E. faecalis 36-15720, quinolone-susceptible enterococci) was 0.5 µg/mL, the MIC (Enterococcus faecalis; E. faecalis 36-15722, quinolone-resistant enterococci) was over 128 µg/mL and the MIC (Enterococcus faecalis; E. faecalis 36-15726, quinolone-resistant enterococci) was over 128 µg/mL. The MIC (Enterococcus faecalis; E. faecalis 36-15730, quinolone-susceptible enterococci) was 0.5 µg/mL, the MIC (Enterococcus faecalis; E. faecalis 36-15736, quinolone-susceptible enterococci) was 0.25 µg/mL and the MIC (Enterococcus faecalis; E. faecalis 36-15741, quinolone-susceptible enterococci) was 0.5 µg/mL. For the same molecule, the MIC (Enterococcus faecalis; NCTC 12201 / VRE, E. faecalis NCTC12201, vancomycin-resistant (VRE), quinolone-susceptible enterococci) was 0.25 µg/mL and the MIC (Enterococcus faecalis; NCTC 12203 / VRE, E. faecalis NCTC12203, vancomycin-resistant (VRE), quinolone-susceptible enterococci) was 0.5 µg/mL.
